Article PMC8321240, “Cell-Type-Specific High Throughput Toxicity Testing in Human Midbrain Organoids” (Frontiers in Molecular Neuroscience, 2021)
“Also recorded” adds a separate entry of the source.

Key:
[1] = tested on: automated midbrain organoids (AMOs); test: Dose-response analysis, ATP-based overall AMO viability; assay type: cell-based, human; details: 0.01-1,000 μM, 48 h + 6 days; viability, Map2 and TH readouts
Experimental: We cultured AMOs for 47 days in our automated system as described above. On day 47, we exchanged the organoid medium to a minimal tox medium (TM, consisting of DMEM/F-12 with 1% N2 supplement and 1% penicillin/streptomycin/glutamine) to reduce possible interference from antioxidants in the B27 media supplement. The next day, we treated the AMOs with the compounds from the library at a concentration of 100 μM in TM with some deviations due to solubility (see Supplementary Table 1 for a complete list of compounds including their final concentrations in the screen). DMSO control samples contained 0.5% (v/v) DMSO, which is equivalent to the amount of solvent in the samples that received compound treatment. After 48 h of incubation with the compounds, we either directly processed the organoids for the 48-h time point or renewed the compounds in TM once to achieve 96 h of incubation. Following either 48 or 96 h of compound incubation, we used the CellTiter-Glo 3D cell viability assay (Promega) to measure the viability of individual organoids, as previously described (Renner et al., [2020]). Briefly, the 96-well plates of AMOs and the reagents were brought to room temperature for 30 min. We adjusted the media volume of each well to 55 μl and added an equal volume (55 μl) of the CellTiter-Glo 3D reagent. Next, the samples were shaken on a Thermomixer (Eppendorf) at 900 rpm for 5 min and then incubated for 25 min at room temperature while protected from light. To minimize signal cross-talk between adjacent wells, we transferred the contents of the clear 96-well culture plates to white/opaque 384-well Lumitrac plates (Greiner) with two technical replicates (20 μl each) per sample, after the incubation. We recorded the luminescence immediately after the transfer using a Synergy Mx plate reader (BioTek).
AMOs were cultured as described above for 47 days. On day 47, we exchanged their medium to tox medium (TM), initially without the addition of any compounds. […] For each compound, we included n = 8 controls per compound treated with the corresponding solvent at an amount equivalent to the highest compound concentration. To assess viability and cell type-specific toxicity in parallel and under the same conditions, we treated all samples with the compounds for 48 h, then exchanged their medium to standard culture medium without compounds and maintained them for an additional 6 days before analysis to allow breakdown and removal of cellular debris. Organoid viability and cell type-specific toxicity were analyzed as described for the primary screens. Here, we acquired five confocal planes spaced 36.6 μm apart in our Operetta high content imager. The image analysis of the AMOs for cell type-specific toxicity assessment required minor adjustments to account for the individual properties of the staining. […] For Map2, we performed Gaussian smoothing with a width of 10 px and omitted the additional sliding parabola filter. The other steps were performed as outlined for the primary cell-type-specific toxicity screen. […] In detail: The dose-response series, including the individual solvent controls, was performed for every compound on a separate 96-well plate of AMOs with initially n = 8 organoids per concentration. […] Data processing, including normalizations, was performed for each individual compound/plate as outlined above for the primary screens. Significant differences between the Map2 and TH content were also determined in GraphPad Prism as described for the primary screen and with the same parameters (multiple comparisons were performed for the different concentrations instead of compounds).

[2] = tested on: TH+ dopaminergic and Map2+ general neurons in AMOs; test: Dose-response analysis, TH and Map2 content by high content imaging; assay type: cell-based, human; details: 48 h + 6 days
Experimental: All processing steps were conducted in an HTS-compatible automated liquid handling system (ALHS, a Biomek FXP liquid handling station). To quantify different cellular subpopulations within the AMOs, we employed our previously described (Renner et al., [2020], [2021b]) ALHS-compatible workflow for combined whole-mount staining and clearing, with minor modifications. We fixed the AMOs with 4% PFA (VWR) for 10–15 min and stained the entire aggregates with primary and secondary antibodies for 6 days each. The antibodies used in this study were as follows. Primary: mouse anti-Map2 (1:1,000, Merck Millipore, cat#: MAB3418) and rabbit anti-TH (1:500, Abcam, cat#: ab112). Secondary: donkey anti-mouse IgG, Alexa Fluor 488 conjugated (1:1,000, Thermo Fisher, cat#: A-21202) and donkey anti-rabbit IgG, Alexa Fluor 647 conjugated (1:1,000, Thermo Fisher, cat#: A-31573). The antibodies were diluted in blocking and permeabilization solution consisting of 6% BSA, 0.5% Triton-X 100 (Roth), 0.1% (w/v) sodium azide (Sigma-Aldrich) in PBS (Sigma-Aldrich) and immediately added after fixation following a triple rinse with PBS. We renewed the antibody solutions once after three days. As a nuclear counter stain, we added DAPI (1 μg/ml, Sigma-Aldrich) to the solution containing the secondary antibodies. Between primary and secondary antibody application and after finishing the secondary antibody incubation, we washed the samples overnight with 0.1% Triton X-100 in PBS, with a total of five exchanges of the washing solution. After the whole-mount staining, we performed BABB-based tissue clearing (Dent et al., [1989]) to allow image acquisition with single-cell resolution of the entire aggregates. For this purpose, we first dehydrated the AMOs via a stepwise methanol (Roth) series (25%, 50%, 70%, 90%, and 100%, each for 15 min). For clearing and imaging, we transferred them to organic solvent-resistant cyclo-olefin 96-well flat-bottom plates (“Screenstar”, Greiner Bio-One). Finally, we incubated the samples for 30 min in 1:1 (v/v) methanol/BABB (BABB consisted of benzyl alcohol (Sigma-Aldrich) and benzyl benzoate (Sigma-Aldrich) at a 1:1 (v/v) ratio) and then kept them in 100% BABB in the dark for storage and subsequent automated high content confocal fluorescent analysis.
We prepared and treated the AMOs with the compounds as described for the primary viability screen. On day 50, after 48 h of compound incubation, we replaced the medium with standard AMO medium and maintained the AMOs for 6 additional days under standard culture conditions. This additional time allows the cells killed by the compounds to be cleared from the aggregates. After the 6 days, we fixed the organoids with 4% PFA, whole-mount-stained them for TH and Map2, and tissue-cleared them as described above. To achieve uniform aggregate positioning within the wells before imaging, we tilted the plates off the horizontal plane at 60 degrees for a minimum of 5 min. We performed automated image acquisition of entire 96-well plates on an Operetta high content imager (Perkin Elmer) and analyzed images in the Harmony 4.1 software and/or Columbus version 2.6.0 as previously described (Renner et al., [2020]), with adjustments to account for the individual properties of the staining and samples. We acquired three medial planes for each organoid, spaced 36.6 μm apart to avoid double-sampling individual morphological features. For the analysis, we defined the organoid region in each image by summing all channels, removed small localized features with a median filter (10 px), and identified putative organoids/regions of interest (ROIs) with the “find image region” function. To identify bona fide AMOs and exclude image artifacts and dust, we selected the ROIs with an area >9,000 μm^2, roundness >0.4, and mean DAPI intensity >190 arbitrary brightness units (abu).

[3] = 0.01-1,000 μM (rotenone up to 100 μM), both AMO lines

Compound | overall toxicity in the dose-response experiments [1] | Map2 content (general neurons) [2, 3] | TH content (dopaminergic neurons) [2, 3] | TH levels compared to Map2 levels ([2]; dose-response, padj < 0.05)
CC(=O)Oc1ccccc1C(=O)O [ASS, acetylsalicylic acid, reference compound] | no significant changes at any of the tested concentrations; also recorded: non-toxic across all tested concentrations | no impact | no impact | 
C=C(C)[C@H]1Cc2c(ccc3c2O[C@@H]2COc4cc(OC)c(OC)cc4[C@@H]2C3=O)O1 [rotenone, reference compound] |  |  |  | significantly reduced TH levels compared to Map2 over a broad range of concentrations
